Reference: the NIST ThermoML archive (doi:10.1021/je060271a)
± gives the expanded uncertainty stated by the source.

Settings: 343.15 K, Liquid, Vibrating tube method

CCCCCCC(=O)OCC(COC(=O)CCCCCC)(COC(=O)CCCCCC)COC(=O)CCCCCC [pentaerythritol tetraheptanoate]
Settings	mass density [kg/m3]
7850.3 kPa	946.4 ± 1.2
7873.8 kPa	946.5 ± 1.2
7893.3 kPa	946.5 ± 1.2
7913.5 kPa	946.6 ± 1.2
7937 kPa	946.6 ± 1.2
7957 kPa	946.6 ± 1.2
7977.2 kPa	946.6 ± 1.2
8001.2 kPa	946.6 ± 1.2
8021.7 kPa	946.5 ± 1.2
8042.2 kPa	946.6 ± 1.2
8067.3 kPa	946.5 ± 1.2
8088 kPa	946.6 ± 1.2
8109.4 kPa	946.6 ± 1.2
8130.2 kPa	946.6 ± 1.2
8151.8 kPa	946.6 ± 1.2
8177.7 kPa	946.8 ± 1.2
8199.3 kPa	946.8 ± 1.2
8220.8 kPa	946.7 ± 1.2
8246.2 kPa	946.7 ± 1.2
8268.1 kPa	946.7 ± 1.2
8290 kPa	946.7 ± 1.2
8311.6 kPa	946.9 ± 1.2
8338.1 kPa	946.7 ± 1.2
8361.6 kPa	946.7 ± 1.2
8384.3 kPa	946.8 ± 1.2
8406.7 kPa	946.8 ± 1.2
8433.8 kPa	946.9 ± 1.2
8456.2 kPa	946.9 ± 1.2
8479.4 kPa	946.9 ± 1.2
8502.3 kPa	946.8 ± 1.2
8530.3 kPa	946.9 ± 1.2
8553.5 kPa	946.9 ± 1.2
8577.2 kPa	946.9 ± 1.2
8605.4 kPa	947 ± 1.2
8629.1 kPa	947 ± 1.2
8653.2 kPa	947 ± 1.2
8683.2 kPa	947 ± 1.2
8702.1 kPa	947.2 ± 1.2
8731.5 kPa	947.1 ± 1.2
8755.6 kPa	947.1 ± 1.2
8780.3 kPa	947.2 ± 1.2
8809.9 kPa	947.1 ± 1.2
8834.4 kPa	947.2 ± 1.2
8864.2 kPa	947.3 ± 1.2
8889.4 kPa	947.1 ± 1.2
8914.2 kPa	947.2 ± 1.2
8939.2 kPa	947.2 ± 1.2
8970.1 kPa	947.3 ± 1.2
8995.6 kPa	947.2 ± 1.2
9022.5 kPa	947.3 ± 1.2
9053.7 kPa	947.3 ± 1.2
9079.4 kPa	947.3 ± 1.2
9110.6 kPa	947.5 ± 1.2
9136.4 kPa	947.5 ± 1.2
9163.7 kPa	947.4 ± 1.2
9195.6 kPa	947.5 ± 1.2
9222.6 kPa	947.5 ± 1.2
9249.7 kPa	947.4 ± 1.2
9282.3 kPa	947.4 ± 1.2
9309.7 kPa	947.4 ± 1.2
9337.9 kPa	947.6 ± 1.2
9371.4 kPa	947.5 ± 1.2
9400.1 kPa	947.5 ± 1.2
9428.6 kPa	947.6 ± 1.2
9456.7 kPa	947.6 ± 1.2
9491 kPa	947.7 ± 1.2
9519.9 kPa	947.6 ± 1.2
9549 kPa	947.8 ± 1.2
9584 kPa	947.6 ± 1.2
9613.7 kPa	947.9 ± 1.2
9649.3 kPa	947.7 ± 1.2
9679.5 kPa	947.8 ± 1.2
9709.5 kPa	947.9 ± 1.2
9739.8 kPa	947.8 ± 1.2
9777.3 kPa	947.7 ± 1.2
9809 kPa	947.8 ± 1.2
9840.2 kPa	947.9 ± 1.2
9878.1 kPa	948 ± 1.2
9910.3 kPa	947.8 ± 1.2
9943.2 kPa	947.8 ± 1.2
9983.2 kPa	948 ± 1.2
10018 kPa	947.9 ± 1.2
10052 kPa	947.9 ± 1.2
10080 kPa	948.1 ± 1.2
10104 kPa	948.1 ± 1.2
10124 kPa	948 ± 1.2
10144 kPa	948 ± 1.2
10169 kPa	948.1 ± 1.2
10189 kPa	948.2 ± 1.2
10207 kPa	948.2 ± 1.2
10224 kPa	948.1 ± 1.2
10244 kPa	948.2 ± 1.2
10261 kPa	948.2 ± 1.2
10281 kPa	948.2 ± 1.2
10298 kPa	948.3 ± 1.2
10315 kPa	948.2 ± 1.2
10335 kPa	948.2 ± 1.2
10352 kPa	948.3 ± 1.2
10370 kPa	948.3 ± 1.2
10390 kPa	948.3 ± 1.2
10408 kPa	948.2 ± 1.2
10425 kPa	948.3 ± 1.2
10445 kPa	948.3 ± 1.2
10463 kPa	948.3 ± 1.2
10481 kPa	948.2 ± 1.2
10502 kPa	948.4 ± 1.2
10520 kPa	948.3 ± 1.2
10537 kPa	948.3 ± 1.2
10558 kPa	948.4 ± 1.2
10576 kPa	948.3 ± 1.2
10594 kPa	948.4 ± 1.2
10613 kPa	948.5 ± 1.2
10635 kPa	948.4 ± 1.2
10655 kPa	948.5 ± 1.2
10673 kPa	948.4 ± 1.2
10692 kPa	948.5 ± 1.2
10710 kPa	948.5 ± 1.2
10732 kPa	948.5 ± 1.2
10750 kPa	948.5 ± 1.2
10769 kPa	948.6 ± 1.2
10791 kPa	948.6 ± 1.2
10810 kPa	948.6 ± 1.2
10832 kPa	948.8 ± 1.2
10851 kPa	948.6 ± 1.2
10870 kPa	948.6 ± 1.2
10893 kPa	948.6 ± 1.2
10909 kPa	948.6 ± 1.2
10932 kPa	948.7 ± 1.2
10951 kPa	948.6 ± 1.2
10975 kPa	948.7 ± 1.2
10994 kPa	948.7 ± 1.2
11014 kPa	948.7 ± 1.2
11033 kPa	948.8 ± 1.2
11056 kPa	948.7 ± 1.2
11076 kPa	948.8 ± 1.2
11096 kPa	948.8 ± 1.2
11120 kPa	948.9 ± 1.2
11140 kPa	948.8 ± 1.2
11160 kPa	948.7 ± 1.2
11184 kPa	948.8 ± 1.2
11204 kPa	948.8 ± 1.2
11224 kPa	948.8 ± 1.2
11245 kPa	948.8 ± 1.2
11269 kPa	948.8 ± 1.2
11289 kPa	948.9 ± 1.2
11310 kPa	949 ± 1.2
11335 kPa	948.8 ± 1.2
11356 kPa	948.9 ± 1.2
11380 kPa	948.8 ± 1.2
11401 kPa	949.1 ± 1.2
11422 kPa	948.9 ± 1.2
11447 kPa	949 ± 1.2
11469 kPa	949.1 ± 1.2
11490 kPa	949 ± 1.2
11511 kPa	948.9 ± 1.2
11537 kPa	949.2 ± 1.2
11558 kPa	949.1 ± 1.2
11584 kPa	949.2 ± 1.2
11606 kPa	949.1 ± 1.2
11627 kPa	949.2 ± 1.2
11649 kPa	949 ± 1.2
11675 kPa	949.3 ± 1.2
11697 kPa	949.1 ± 1.2
11719 kPa	949.2 ± 1.2
11746 kPa	949.3 ± 1.2
11768 kPa	949.2 ± 1.2
11794 kPa	949.3 ± 1.2
11817 kPa	949.3 ± 1.2
11840 kPa	949.2 ± 1.2
11862 kPa	949.3 ± 1.2
11889 kPa	949.4 ± 1.2
11911 kPa	949.2 ± 1.2
11939 kPa	949.3 ± 1.2
11962 kPa	949.5 ± 1.2
11985 kPa	949.4 ± 1.2
12012 kPa	949.4 ± 1.2
12036 kPa	949.4 ± 1.2
12060 kPa	949.5 ± 1.2
12088 kPa	949.5 ± 1.2
12112 kPa	949.3 ± 1.2
12136 kPa	949.5 ± 1.2
12159 kPa	949.5 ± 1.2
12188 kPa	949.5 ± 1.2
12212 kPa	949.6 ± 1.2
12241 kPa	949.5 ± 1.2
12265 kPa	949.6 ± 1.2
12290 kPa	949.5 ± 1.2
12314 kPa	949.6 ± 1.2
12344 kPa	949.5 ± 1.2
12368 kPa	949.6 ± 1.2
12394 kPa	949.7 ± 1.2
12424 kPa	949.8 ± 1.2
12449 kPa	949.7 ± 1.2
12474 kPa	949.9 ± 1.2
12504 kPa	949.7 ± 1.2
12530 kPa	949.7 ± 1.2
12555 kPa	949.8 ± 1.2
12581 kPa	949.7 ± 1.2
12612 kPa	949.9 ± 1.2
12638 kPa	949.9 ± 1.2
12664 kPa	949.8 ± 1.2
12695 kPa	949.8 ± 1.2
12722 kPa	950 ± 1.2
12750 kPa	949.9 ± 1.2
12776 kPa	950 ± 1.2
12803 kPa	949.8 ± 1.2
12834 kPa	950.1 ± 1.2
12861 kPa	950.1 ± 1.2
12894 kPa	950 ± 1.2
12921 kPa	950.1 ± 1.2
12948 kPa	950 ± 1.2
12975 kPa	950 ± 1.2
13007 kPa	950.1 ± 1.2
13035 kPa	950.2 ± 1.2
13069 kPa	950.1 ± 1.2
13098 kPa	950.1 ± 1.2
13127 kPa	950.2 ± 1.2
13155 kPa	950.2 ± 1.2
13189 kPa	950.3 ± 1.2
13217 kPa	950.3 ± 1.2
13246 kPa	950.3 ± 1.2
13275 kPa	950.3 ± 1.2
13311 kPa	950.4 ± 1.2
